# Measured values published in US11028079B2 (ConverGene LLC, priority 2015, dated 2021).
# Target: T1, BRD4 bromodomains (Homo sapiens, UniProt O60885)
# T1 construct: fused on or other part: T7 phage capsid protein (phage-display fusion; the phage DNA is read out by qPCR)
# Assay: BROMOscan bromodomain competition binding assay (DiscoveRx)
# Settings: Kd from 11 compound concentrations ranging from 0 to 10 μM, read-out: BROMOscan Relative Activity
# Method in brief: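 Compounds in 0.1% DMSO/0.9% MEG competed with a solid-phase acetylated peptide for T7 phage-fused BRD4 bromodomains, with the retained bromodomain measured by qPCR.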
row,Structure (SMILES),Kd
1,"Cn1cc(-c2ccc3nc(-c4cnn(CC(C)(C)O)c4)nc(N4CCOC[C@@H]4c4ccccc4)c3c2)ccc1=O [Example 292, (S)-5-(2-(1-(2-hydroxy-2-methylpropyl)-1H-pyrazol-4-yl)-4-(3-phenylmorpholino)quinazolin-6-yl)-1-methylpyridin-2(1H)-one]",< 0.5 µM
2,"Cc1noc(C)c1-c1ccc2nc(N3CCN(C)CC3)nc(N3CCOC[C@@H]3c3ccccc3)c2c1 [Example 293, (S)-4-(6-(3,5-dimethylisoxazol-4-yl)-2-(4-methylpiperazin-1-yl)quinazolin-4-yl)-3-phenylmorpholine]",< 0.5 µM
3,"CC(=O)N1CCN(c2nc(N3CCOC[C@@H]3c3ccccc3)c3cc(-c4c(C)noc4C)ccc3n2)CC1 [Example 294, (S)-1-(4-(6-(3,5-dimethylisoxazol-4-yl)-4-(3-phenylmorpholino)quinazolin-2-yl)piperazin-1-yl)ethan-1-one]",< 0.5 µM
4,"Cc1noc(C)c1-c1ccc2nc(N3CCN(CC(C)(C)O)CC3)nc(N3CCOC[C@@H]3c3ccccc3)c2c1 [Example 295, (S)-1-(4-(6-(3,5-dimethylisoxazol-4-yl)-4-(3-phenylmorpholino)quinazolin-2-yl)piperazin-1-yl)-2-methylpropan-2-ol]",< 0.5 µM
5,"CNC(=O)C1CCN(c2nc(N3CCOC[C@@H]3c3ccccc3)c3cc(-c4c(C)noc4C)ccc3n2)CC1 [Example 296, (S)-1-(6-(3,5-dimethylisoxazol-4-yl)-4-(3-phenylmorpholino)quinazolin-2-yl)-N-methylpiperidine-4-carboxamide]",< 0.5 µM
6,"Cc1noc(C)c1-c1ccc2nc(-c3cnn(CC(N)=O)c3)nc(N3CCOC[C@@H]3c3ccccc3)c2c1 [Example 297, (S)-2-(4-(6-(3,5-dimethylisoxazol-4-yl)-4-(3-phenylmorpholino)quinazolin-2-yl)-1H-pyrazol-1-yl)acetamide]",< 0.5 µM
7,CNC(=O)CN1CCN(c2nc(N3CCOC[C@@H]3c3ccccc3)c3cc(-c4c(C)noc4C)ccc3n2)CC1 [Example 298],< 0.5 µM
8,"CCNC(=O)N1CCN(c2nc(N3CCOC[C@@H]3c3ccccc3)c3cc(-c4c(C)noc4C)ccc3n2)CC1 [Example 299, (S)-4-(6-(3,5-dimethylisoxazol-4-yl)-4-(3-phenylmorpholino)quinazolin-2-yl)-N-ethylpiperazine-1-carboxamide]",< 0.5 µM
9,"Cc1noc(C)c1-c1ccc2nc(N3CCN(C(=O)c4cnn(C)c4)CC3)nc(N3CCOC[C@@H]3c3ccccc3)c2c1 [Example 300, (S)-(4-(6-(3,5-dimethylisoxazol-4-yl)-4-(3-phenylmorpholino)quinazolin-2-yl)piperazin-1-yl)(1-methyl-1H-pyrazol-4-yl)methanone]",< 0.5 µM
10,"Cc1noc(C)c1-c1ccc2nc(-c3cnn(CC(=O)N(C)C)c3)nc(N3CCOC[C@@H]3c3ccccc3)c2c1 [Example 301, (S)-2-(4-(6-(3,5-dimethylisoxazol-4-yl)-4-(3-phenylmorpholino)quinazolin-2-yl)-1H-pyrazol-1-yl)-N,N-dimethylacetamide]",< 0.5 µM
11,"Cc1noc(C)c1-c1ccc2nc(-c3cnn(CS(C)(=O)=O)c3)nc(N3CCOC[C@@H]3c3ccccc3)c2c1 [Example 302, (S)-4-(6-(3,5-dimethylisoxazol-4-yl)-2-(1-((methylsulfonyl)methyl)-1H-pyrazol-4-yl)quinazolin-4-yl)-3-phenylmorpholine]",< 0.5 µM
12,"Cc1noc(C)c1-c1ccc2nc(N3CCN(CC(=O)N(C)C)CC3)nc(N3CCOC[C@@H]3c3ccccc3)c2c1 [Example 303, (S)-2-(4-(6-(3,5-dimethylisoxazol-4-yl)-4-(3-phenylmorpholino)quinazolin-2-yl)piperazin-1-yl)-N,N-dimethylacetamide]",< 0.5 µM
13,"Cc1noc(C)c1-c1ccc2nc(-c3cnn(C(C)(C)CO)c3)nc(N3CCOC[C@@H]3c3ccccc3)c2c1 [Example 304, (S)-2-(4-(6-(3,5-dimethylisoxazol-4-yl)-4-(3-phenylmorpholino)quinazolin-2-yl)-1H-pyrazol-1-yl)-2-methylpropan-1-ol]",< 0.5 µM
14,"Cc1noc(C)c1-c1ccc2nc(N3CCN(C(=O)CO)CC3)nc(N3CCOC[C@@H]3c3ccccc3)c2c1 [Example 305, (S)-1-(4-(6-(3,5-dimethylisoxazol-4-yl)-4-(3-phenylmorpholino)quinazolin-2-yl)piperazin-1-yl)-2-hydroxyethan-1-one]",< 0.5 µM
15,"Cc1noc(C)c1-c1ccc2nc(-c3cnn(CCO)c3)nc(N3CCOC[C@@H]3c3ccccc3)c2c1 [Example 306, (S)-2-(4-(6-(3,5-dimethylisoxazol-4-yl)-4-(3-phenylmorpholino)quinazolin-2-yl)-1H-pyrazol-1-yl)ethan-1-ol]",< 0.5 µM
16,"Cc1noc(C)c1-c1ccc2nc(N3CCN(CC(N)=O)CC3)nc(N3CCOC[C@@H]3c3ccccc3)c2c1 [Example 307, (S)-2-(4-(6-(3,5-dimethylisoxazol-4-yl)-4-(3-phenylmorpholino)quinazolin-2-yl)piperazin-1-yl)acetamide]",< 0.5 µM

row,Structure (SMILES),Kd
1,"Cc1noc(C)c1-c1ccc2nc(N3CCN(C[C@H](C)O)CC3)nc(N3CCOC[C@@H]3c3ccccc3)c2c1 [Example 308, (S)-1-(4-(6-(3,5-dimethylisoxazol-4-yl)-4-((S)-3-phenylmorpholino)quinazolin-2-yl)piperazin-1-yl)propan-2-ol]",< 0.5 µM
2,"CC(=O)N1CCN(c2nc(-c3cnn(CC(C)(C)O)c3)nc3ccc(-c4c(C)noc4C)cc23)[C@@H](c2ccccc2)C1 [Example 309, (S)-1-(4-(6-(3,5-dimethylisoxazol-4-yl)-2-(1-(2-hydroxy-2-methylpropyl)-1H-pyrazol-4-yl)quinazolin-4-yl)-3-phenylpiperazin-1-yl)ethan-1-one]",< 0.5 µM
3,"Cc1noc(C)c1-c1ccc2nc(-c3cnn(CC(C)(C)O)c3)nc(N3CCN(S(C)(=O)=O)C[C@@H]3c3ccccc3)c2c1 [Example 310, (S)-1-(4-(6-(3,5-dimethylisoxazol-4-yl)-4-(4-(methylsulfonyl)-2-phenylpiperazin-1-yl)quinazolin-2-yl)-1H-pyrazol-1-yl)-2-methylpropan-2-ol]",< 0.5 µM
4,"Cc1noc(C)c1-c1ccc2nc(N3CCc4ncn(C)c4C3)nc(N3CCOC[C@@H]3c3ccccc3)c2c1 [Example 311, (S)-4-(6-(3,5-dimethylisoxazol-4-yl)-2-(3-methyl-3,4,6,7-tetrahydro-5H-imidazo[4,5-c]pyridin-5-yl)quinazolin-4-yl)-3-phenylmorpholine]",< 0.5 µM
5,"Cc1noc(C)c1-c1ccc2nc(-c3cnn(CC(C)(C)O)c3)nc(N(Cc3cccc(Cl)c3)C3CC3)c2c1 [Example 312, 1-(4-(4-((3-chlorobenzyl)(cyclopropyl)amino)-6-(3,5-dimethylisoxazol-4-yl)quinazolin-2-yl)-1H-pyrazol-1-yl)-2-methylpropan-2-ol]",< 0.5 µM
6,"Cc1noc(C)c1-c1ccc2nc(N3CCC4(CC3)CC(O)C4)nc(N3CCOC[C@@H]3c3ccccc3)c2c1 [Example 313, (S)-7-(6-(3,5-dimethylisoxazol-4-yl)-4-(3-phenylmorpholino)quinazolin-2-yl)-7-azaspiro 13.51 nonan-2-ol]",< 0.5 µM
7,"Cc1noc(C)c1-c1ccc2nc(N3CCC4(CCC(=O)N4)CC3)nc(N3CCOC[C@@H]3c3ccccc3)c2c1 [Example 314, (S)-8-(6-(3,5-dimethylisoxazol-4-yl)-4-(3-phenylmorpholino)quinazolin-2-yl)-1,8-diazaspiro[4.5]decan-2-one]",< 0.5 µM
8,"Cc1noc(C)c1-c1ccc2nc(C(=O)NC3CS(=O)(=O)C3)nc(N3CCOC[C@@H]3c3ccccc3)c2c1 [Example 315, (S)-6-(3,5-dimethylisoxazol-4-yl)-N-(1,1-dioxidothietan-3-yl)-4-(3-phenylmorpholino)quinazoline-2-carboxamide]",< 0.5 µM
9,"Cc1noc(C)c1-c1ccc2nc(C(=O)N3CCC4(CC3)CC(O)C4)nc(N3CCOC[C@@H]3c3ccccc3)c2c1 [Example 316, (S)-(6-(3,5-dimethylisoxazol-4-yl)-4-(3-phenylmorpholino)quinazolin-2-yl)(2-hydroxy-7-azaspiro[3.5]nonan-7-yl)methanone]",0.5 to 5 µM
10,"Cc1noc(C)c1-c1ccc2nc(C(=O)N3CCc4cnn(C)c4C3)nc(N3CCOC[C@@H]3c3ccccc3)c2c1 [Example 317, (S)-(6-(3,5-dimethylisoxazol-4-yl)-4-(3-phenylmorpholino)quinazolin-2-yl)(1-methyl-1,4,5,7-tetrahydro-6H-pyrazolo[3,4-c]pyridin-6-yl)methanone]",0.5 to 5 µM
11,"Cc1noc(C)c1-c1ccc2nc(N3CCc4cnn(C)c4C3)nc(N3CCOC[C@@H]3c3ccccc3)c2c1 [Example 318, (S)-4-(6-(3,5-dimethylisoxazol-4-yl)-2-(1-methyl-1,4,5,7-tetrahydro-6H-pyrazolo[3,4-c]pyridin-6-yl)quinazolin-4-yl)-3-phenylmorpholine]",< 0.5 µM
12,"Cc1noc(C)c1-c1ccc2nc(-c3cnn(C4CCNCC4)c3)nc(N3CCOC[C@@H]3c3ccccc3)c2c1 [Example 319, (S)-4-(6-(3,5-dimethylisoxazol-4-yl)-2-(1-(piperidin-4-yl)-1H-pyrazol-4-yl)quinazolin-4-yl)-3-phenylmorpholine]",< 0.5 µM
13,"Cc1noc(C)c1-c1ccc2nc(N3CCC4(CCN(C)C4=O)CC3)nc(N3CCOC[C@@H]3c3ccccc3)c2c1 [Example 320, (S)-8-(6-(3,5-dimethylisoxazol-4-yl)-4-(3-phenylmorpholino)quinazolin-2-yl)-2-methyl-2,8-diazaspiro[4.5]decan-1-one]",< 0.5 µM
14,"Cc1noc(C)c1-c1ccc2nc(-c3ccc(CO)nc3)nc(N3CCOC[C@@H]3c3ccccc3)c2c1 [Example 321, (S)-(5-(6-(3,5-dimethylisoxazol-4-yl)-4-(3-phenylmorpholino)quinazolin-2-yl)pyridin-2-yl)methanol]",< 0.5 µM
15,"Cc1noc(C)c1-c1ccc2nc(-c3cnn(CC(C)(C)O)c3)nc(N3CCN(C(=O)NC4CC4)C[C@@H]3c3ccccc3)c2c1 [Example 322, (S)—N-cyclopropyl-4-(6-(3,5-dimethylisoxazol-4-yl)-2-(1-(2-hydroxy-2-methylpropyl)-1H-pyrazol-4-yl)quinazolin-4-yl)-3-phenylpiperazine-1-carboxamide]",< 0.5 µM
